Patent publication EP0994107A1, “5-Arylisoxazol-4-yl-substituted 2-amino carboxylic acid compounds” (H. LUNDBECK A/S, priority 1993, dated 1995)

Key:
AMPA receptors = test: [3H]AMPA binding (displacement of [3H]AMPA, in the presence of KSCN); details: only high affinity binding sites labelled
Description: In this test the affinity of a drug for AMPA receptors is determined by measuring the ability to displace [^3H]AMPA from AMPA receptors.
The test was carried out in accordance with a modified version of the method of Honoré, T. and Nielsen, M., Neurosci.Lett. 1985, 54, 27-32. The test was carried out in the presence of KSCN. This means that only the [^3H]AMPA high affinity binding sites were labelled.
The membrane preparations used were obtained in accordance with the method of Ransom, R.W. and Stec, J.Neurochem. 1988, 51, 830-836.

AMPA = test: Cortical wedge model (electrophysiology, rat cortical wedge preparation), AMPA subtype; assay type: cell-based; details: receptor subtype AMPA; for EC50: agonist; for Ki: starred in IC50 column (*) = Ki value)
Description: (§1) The Cortical wedge model is a test in which slices of rat brain is examined in vitro in order to quantify the effect of ligands at the Glu-receptors and evaluate the pharmacological profile of the ligands (i.e. agonist/antagonist properties). The test was performed as described by Harrison, N.L. and Simmonds, M.A. Br.J. Pharmacol. 1985, 84, 381-391 as modified according to Wheatley, P.L. Br.J.Pharmacol. 1986, 87, 159P.

NMDA-receptor = test: [3H]CPP binding (displacement of [3H]CPP from the transmitter binding site)
NMDA = test: Cortical wedge model (electrophysiology, rat cortical wedge preparation), NMDA subtype; assay type: cell-based; details: receptor subtype NMDA; for EC50: agonist; for IC50: antagonist
Description: as §1

KAIN = test: Cortical wedge model (electrophysiology, rat cortical wedge preparation), KAIN subtype; assay type: cell-based; details: receptor subtype KAIN
Description: as §1

Structure (SMILES)	IC50 (AMPA receptors)	Profile (AMPA)	EC50 (AMPA)	IC50 (NMDA-receptor)	Profile (NMDA)	further results
NC(Cc1c(O)noc1-c1cccs1)C(=O)O (racemic) [Compound 1a, (RS)-2-Amino-3-[3-hydroxy-5-(2-thienyl)isoxazol-4-yl]propionic Acid]	0.28 µM	Agonist	5.8 µM	> 100 µM		
NC(Cc1c(O)noc1-c1ccsc1)C(=O)O (racemic) [Compound 1b, (RS)-2-Amino-3-[3-hydroxy-5-(3-thienyl)isoxazol-4-yl]propionic Acid]	3.5 µM	Agonist	43 µM	> 100 µM		
Cc1ccc(-c2onc(O)c2CC(N)C(=O)O)s1 (racemic) [Compound 1f, (RS)-2-Amino-3-[3-hydroxy-5-(5-methyl-2-thienyl)isoxazol-4-yl]propionic Acid]		Agonist	130 µM			
NC(C(=O)O)c1c(O)noc1-c1ccccc1 (racemic) [Compound 2a, (RS)-2-Amino-2-(3-hydroxy-5-phenylisoxazol-4-yl)acetic Acid]	43 µM			7.5 µM	Part. Ago.#	EC50 (NMDA): 300 µM
NC(C(=O)O)c1c(O)noc1-c1cccs1 (racemic) [Compound 2b, (RS)-2-Amino-2-[3-hydroxy-5-(2-thienyl)isoxazol-4-yl]acetic Acid]					Agonist	EC50 (NMDA): 30 µM
NC(CCCc1c(O)noc1-c1ccccc1)C(=O)O (racemic) [Compound 3a, (RS)-2-Amino-5-(3-hydroxy-5-phenylisoxazol-4-yl)pentanoic Acid]	9 µM	Agonist	240 µM	21 µM		
NC(CCc1c(O)noc1-c1ccc(F)cc1)C(=O)O (racemic) [Compound 4a, (RS)-2-Amino-4-[5-(4-fluorophenyl)-3-hydroxyisoxazol-4-yl]butanoic Acid]	> 100 µM			0.76 µM	Antagonist	IC50 (NMDA): 9 µM
NC(CCc1c(O)noc1-c1ccccc1)C(=O)O (racemic) [Compound 4b, (RS)-2-Amino-4-(3-hydroxy-5-phenylisoxazol-4-yl)butanoic Acid]	> 100 µM			2.5 µM	Antagonist	IC50 (NMDA): 18 µM
NC(CCc1c(O)noc1-c1cccs1)C(=O)O (racemic) [Compound 4c, (RS)-2-Amino-4-[3-hydroxy-5-(2-thienyl)isoxazol-4-yl]butanoic Acid]	> 100 µM			0.19 µM	Antagonist	IC50 (NMDA): 2.5 µM
NC(CCc1c(O)noc1-c1ccsc1)C(=O)O (racemic) [Compound 4d, (RS)-2-Amino-4-[3-hydroxy-5-(3-thienyl)isoxazol-4-yl]butanoic Acid]	> 100 µM			0.7 µM	Antagonist	IC50 (NMDA): 8.6 µM
NC(Cc1c(O)noc1-c1ccccn1)C(=O)O (racemic) [Compound 13a, (RS)-2-Amino-3-[3-hydroxy-5-(2-pyridyl)isoxazol-4-yl)propionic Acid]		Agonist	55 µM			
NC(Cc1c(O)noc1-c1ccncc1)C(=O)O (racemic) [Compound 13b, (RS)-2-Amino-3-[3-hydroxy-5-(4-pyridyl)isoxazol-4-yl]propionic Acid]		Agonist	7.4 µM			
NC(Cc1c(O)noc1-c1ccc(F)cc1)C(=O)O (single isomer, unassigned; (+)) [Compound 14d, (+)-2-Amino-3-[5-(4-fluorophenyl)-3-hydroxyisoxazol-4-yl]propionic Acid]		Agonist	170 µM			
NC(Cc1c(O)noc1-c1cccs1)C(=O)O (single isomer, unassigned; (+)) [Compound 15b, (+)-2-Amino-3-[3-hydroxy-5-(2-thienyl)isoxazol-4-yl]propionic acid]		Agonist	2.7 µM			
NC(Cc1c(O)noc1-c1ccc(F)cc1)C(=O)O (single isomer, unassigned; (-)) [Compound 14c, (-)-2-Amino-3-[5-(4-fluorophenyl)-3-hydroxyisoxazol-4-yl]propionic Acid]		Antagonist				Ki (AMPA): 337 µM
NC(Cc1c(O)noc1-c1cccs1)C(=O)O (single isomer, unassigned; (-)) [Compound 15a, (-)-2-Amino-3-[3-hydroxy-5-(2-thienyl)isoxazol-4-yl]propionic Acid]		Antagonist				IC50 (AMPA; antagonist): 300 µM
Nc1c(NCc2c(O)noc2-c2ccccc2)c(=O)c1=O [Compound 5a, 4-[(2-Amino-3,4-dioxo-1-cyclobuten-1-yl)aminomethyl]-3-hydroxy-5-phenylisoxazole]	33 µM	Antagonist		22 µM	Antagonist	Profile (KAIN): Antagonist
Nc1c(NCc2c(O)noc2-c2cccs2)c(=O)c1=O [Compound 5b, 4-[(2-Amino-3,4-dioxo-1-cyclobuten-1-yl)aminomethyl]-3-hydroxy-5-(2-thienyl)isoxazole]	38 µM			6.9 µM	Antagonist	IC50 (NMDA): 30 µM
Nc1c(NCc2c(O)noc2-c2ccsc2)c(=O)c1=O [Compound 5c, 4-[(2-Amino-3,4-dioxo-1-cyclobuten-1-yl)aminomethyl]-3-hydroxy-5-(3-thienyl)isoxazole]		Antagonist			Antagonist	
N[C@@H](Cc1c(O)noc1-c1ccccc1)C(=O)O [Compound 14a, (S)-(+)-2-Amino-3-(3-hydroxy-5-phenylisoxazol-4-yl)propionic acid]	5.5 µM	Agonist	230 µM			
N[C@H](Cc1c(O)noc1-c1ccccc1)C(=O)O [Compound 14b, (R)-(-)-2-Amino-3-(3-hydroxy-5-phenylisoxazol-4-yl)propionic acid]		Antagonist				Ki (AMPA): 290 µM; Profile (KAIN): Antagonist; Ki (KAIN; starred in IC50 column (*) = Ki value)): 950 µM
